Assay results from patent publication US12084467B2, “Therapeutic compounds for HIV virus infection” (Gilead Sciences, Inc., priority 2021, dated 2024).

Assay: Kinetic solubility analysis (CLND: total chemiluminescent nitrogen determination)
Conditions: 1.0% DMSO, 24-hour incubation at ambient temperature, maximum theoretical concentration 100 μM; for pH 2 solubility: 0.1N HCl; for pH 7 solubility: 1×PBS buffer (pH 7.4)

| SMILES | pH 2 solubility | pH 7 solubility |
| --- | --- | --- |
| CC(C)(C#Cc1ccc(-c2ccc(Cl)c3c(N(C(=O)[C@H]4C[C@H](NC(=O)C(=O)O)C4)S(C)(=O)=O)nn(CC(F)(F)F)c23)c([C@H](Cc2cc(F)cc(F)c2)NC(=O)Cn2nc(C(F)(F)F)c3c2C(F)(F)[C@@H]2C[C@H]32)n1)S(C)(=O)=O [Compound 8] | <1/1 μM | <1/1 μM |
| CC(C)(C#Cc1ccc(-c2ccc(Cl)c3c(N(C(=O)N4CCC(C(=O)O)CC4)S(C)(=O)=O)nn(CC(F)(F)F)c23)c([C@H](Cc2cc(F)cc(F)c2)NC(=O)Cn2nc(C(F)(F)F)c3c2C(F)(F)[C@@H]2C[C@H]32)n1)S(C)(=O)=O [Compound 25, 1-((4-chloro-7-(2-((S)-1-(2-((3bS,4aR)-5,5-difluoro-3-(trifluoromethyl)-3b,4,4a,5-tetrahydro-1H-cyclopropa[3,4]cyclopenta[1,2-c]pyrazol-1-yl)acetamido)-2-(3,5-difluorophenyl)ethyl)-6-(3-methyl-3-(methylsulfonyl)but-1-yn-1-yl)pyridin-3-yl)-1-(2,2,2-trifluoroethyl)-1H-indazol-3-yl)(methylsulfonyl)carbamoyl)piperidine-4-carboxylic acid] | 1 μM | 19 μM |
| CC(C)(C#Cc1ccc(-c2ccc(Cl)c3c(N(C(=O)C4CN(C(=N)N)C4)S(C)(=O)=O)nn(CC(F)(F)F)c23)c([C@H](Cc2cc(F)cc(F)c2)NC(=O)Cn2nc(C(F)(F)F)c3c2C(F)(F)[C@@H]2C[C@H]32)n1)S(C)(=O)=O [Compound 6, 1-carbamimidoyl-N-(4-chloro-7-(2-((S)-1-(2-((3bS,4aR)-5,5-difluoro-3-(trifluoromethyl)-3b,4,4a,5-tetrahydro-1H-cyclopropa[3,4]cyclopenta[1,2-c]pyrazol-1-yl)acetamido)-2-(3,5-difluorophenyl)ethyl)-6-(3-methyl-3-(methylsulfonyl)but-1-yn-1-yl)pyridin-3-yl)-1-(2,2,2-trifluoroethyl)-1H-indazol-3-yl)-N-(methylsulfonyl)azetidine-3-carboxamide] | 15 μM | 9 μM |
| CC(C)(C#Cc1ccc(-c2ccc(Cl)c3c(N(C(=O)[C@H]4C[C@H]4C(=O)O)S(C)(=O)=O)nn(CC(F)(F)F)c23)c([C@H](Cc2cc(F)cc(F)c2)NC(=O)Cn2nc(C(F)(F)F)c3c2C(F)(F)[C@@H]2C[C@H]32)n1)S(C)(=O)=O [Compound 17, (1R,2S)-2-((4-chloro-7-(2-((S)-1-(2-((3bS,4aR)-5,5-difluoro-3-(trifluoromethyl)-3b,4,4a,5-tetrahydro-1H-cyclopropa[3,4]cyclopenta[1,2-c]pyrazol-1-yl)acetamido)-2-(3,5-difluorophenyl)ethyl)-6-(3-methyl-3-(methylsulfonyl)but-1-yn-1-yl)pyridin-3-yl)-1-(2,2,2-trifluoroethyl)-1H-indazol-3-yl)(methylsulfonyl)carbamoyl)cyclopropane-1-carboxylic acid] | 3/3 μM | 3/3 μM |
| CC(C)(C#Cc1ccc(-c2ccc(Cl)c3c(N(C(=O)N4CCC(N5CCCCC5)CC4)S(C)(=O)=O)nn(CC(F)(F)F)c23)c([C@H](Cc2cc(F)cc(F)c2)NC(=O)Cn2nc(C(F)(F)F)c3c2C(F)(F)[C@@H]2C[C@H]32)n1)S(C)(=O)=O [Compound 2, N-(4-chloro-7-(2-((S)-1-(2-((3bS,4aR)-5,5-difluoro-3-(trifluoromethyl)-3b,4,4a,5-tetrahydro-1H-cyclopropa[3,4]cyclopenta[1,2-c]pyrazol-1-yl)acetamido)-2-(3,5-difluorophenyl)ethyl)-6-(3-methyl-3-(methylsulfonyl)but-1-yn-1-yl)pyridin-3-yl)-1-(2,2,2-trifluoroethyl)-1H-indazol-3-yl)-N-(methylsulfonyl)-[1,4′-bipiperidine]-1′-carboxamide] | 17 μM | 1 μM |

Other lines, results leading:

| pH 2 solubility | pH 7 solubility | SMILES |
| --- | --- | --- |
| 34 μM | 1 μM | CC(C)(C#Cc1ccc(-c2ccc(Cl)c3c(N(C(=O)C4CNC4)S(C)(=O)=O)nn(CC(F)(F)F)c23)c([C@H](Cc2cc(F)cc(F)c2)NC(=O)Cn2nc(C(F)(F)F)c3c2C(F)(F)[C@@H]2C[C@H]32)n1)S(C)(=O)=O [Compound 5, N-(4-chloro-7-(2-((S)-1-(2-((3bS,4aR)-5,5-difluoro-3-(trifluoromethyl)-3b,4,4a,5-tetrahydro-1H-cyclopropa[3,4]cyclopenta[1,2-c]pyrazol-1-yl)acetamido)-2-(3,5-difluorophenyl)ethyl)-6-(3-methyl-3-(methylsulfonyl)but-1-yn-1-yl)pyridin-3-yl)-1-(2,2,2-trifluoroethyl)-1H-indazol-3-yl)-N-(methylsulfonyl)azetidine-3-carboxamide] |
| 39 μM | 1 μM | CN1CCN(C(=O)N(c2nn(CC(F)(F)F)c3c(-c4ccc(C#CC(C)(C)S(C)(=O)=O)nc4[C@H](Cc4cc(F)cc(F)c4)NC(=O)Cn4nc(C(F)(F)F)c5c4C(F)(F)[C@@H]4C[C@H]54)ccc(Cl)c23)S(C)(=O)=O)CC1 [Compound 1, N-(4-chloro-7-(2-((S)-1-(2-((3bS,4aR)-5,5-difluoro-3-(trifluoromethyl)-3b,4,4a,5-tetrahydro-1H-cyclopropa[3,4]cyclopenta[1,2-c]pyrazol-1-yl)acetamido)-2-(3,5-difluorophenyl)ethyl)-6-(3-methyl-3-(methylsulfonyl)but-1-yn-1-yl)pyridin-3-yl)-1-(2,2,2-trifluoroethyl)-1H-indazol-3-yl)-4-methyl-N-(methylsulfonyl)piperazine-1-carboxamide] |
| 70 μM | 1 μM | CC(C)(C#Cc1ccc(-c2ccc(Cl)c3c(N(C(=O)[C@H]4C[C@H](N)C4)S(C)(=O)=O)nn(CC(F)(F)F)c23)c([C@H](Cc2cc(F)cc(F)c2)NC(=O)Cn2nc(C(F)(F)F)c3c2C(F)(F)[C@@H]2C[C@H]32)n1)S(C)(=O)=O [Compound 7, (trans)-3-amino-N-(4-chloro-7-(2-((S)-1-(2-((3bS,4aR)-5,5-difluoro-3-(trifluoromethyl)-3b,4,4a,5-tetrahydro-1H-cyclopropa[3,4]cyclopenta[1,2-c]pyrazol-1-yl)acetamido)-2-(3,5-difluorophenyl)ethyl)-6-(3-methyl-3-(methylsulfonyl)but-1-yn-1-yl)pyridin-3-yl)-1-(2,2,2-trifluoroethyl)-1H-indazol-3-yl)-N-(methylsulfonyl)cyclobutane-1-carboxamide] |
| 61 μM | 14 μM | CC(C)(C#Cc1ccc(-c2ccc(Cl)c3c(N(C(=O)N4CCC[C@H]4CN)S(C)(=O)=O)nn(CC(F)(F)F)c23)c([C@H](Cc2cc(F)cc(F)c2)NC(=O)Cn2nc(C(F)(F)F)c3c2C(F)(F)[C@@H]2C[C@H]32)n1)S(C)(=O)=O [Compound 31, (S)-2-(aminomethyl)-N-(4-chloro-7-(2-((S)-1-(2-((3bS,4aR)-5,5-difluoro-3-(trifluoromethyl)-3b,4,4a,5-tetrahydro-1H-cyclopropa[3,4]cyclopenta[1,2-c]pyrazol-1-yl)acetamido)-2-(3,5-difluorophenyl)ethyl)-6-(3-methyl-3-(methylsulfonyl)but-1-yn-1-yl)pyridin-3-yl)-1-(2,2,2-trifluoroethyl)-1H-indazol-3-yl)-N-(methylsulfonyl)pyrrolidine-1-carboxamide] |
